Legend:
[1] = tested on: lysosomal acid lipase deficient (LAL−/−) mice; assay: Mouse model of lysosomal acid lipase deficiency, PRD125 as diet admixture; format: in vivo
Description: In the present example, hepatic lipid concentrations and content in a lysosomal acid lipase deficient (LAL^−/−) mouse model were determined in the presence and absence of selective SOAT2 inhibitors. The data are for male lysosomal acid lipase deficient mice on a FVB background. The mice were fed a chow diet for 21 days. During the subsequent 52 or 53 days, 5 mice were fed the chow diet without drug and 3 of 5 to be studied were fed a chow diet supplemented with PRD125 at a dose of 10 mg/kg/day. Animals were ex-sanguinated at 52 days and the blood plasma was collected in EDTA and frozen in liquid nitrogen. The livers, small intestine, and spleen were flushed with saline and rinsed, then also snap frozen in liquid nitrogen. All organs were weighed, and after freezing, approximately 25 mg of tissue was extracted in chloroform methanol, 2:1, for subsequent lipid determinations. Free and total cholesterol was measured enzymatically and esterified cholesterol was determined by difference. Aliquots of the terminal plasma were used for measurement of tissue enzymes.
Mice were studied starting at 21 days of age and studied for 52 to 53 days. Treatment with PRD125 was at 10 mg/kg/day and the compound was given as a diet admixture.

SOAT2 = target: T1, SOAT2 (Homo sapiens, UniProt O75908); assay: Specificity for SOAT2 compared to SOAT1
T1 sequence (O75908 1-522): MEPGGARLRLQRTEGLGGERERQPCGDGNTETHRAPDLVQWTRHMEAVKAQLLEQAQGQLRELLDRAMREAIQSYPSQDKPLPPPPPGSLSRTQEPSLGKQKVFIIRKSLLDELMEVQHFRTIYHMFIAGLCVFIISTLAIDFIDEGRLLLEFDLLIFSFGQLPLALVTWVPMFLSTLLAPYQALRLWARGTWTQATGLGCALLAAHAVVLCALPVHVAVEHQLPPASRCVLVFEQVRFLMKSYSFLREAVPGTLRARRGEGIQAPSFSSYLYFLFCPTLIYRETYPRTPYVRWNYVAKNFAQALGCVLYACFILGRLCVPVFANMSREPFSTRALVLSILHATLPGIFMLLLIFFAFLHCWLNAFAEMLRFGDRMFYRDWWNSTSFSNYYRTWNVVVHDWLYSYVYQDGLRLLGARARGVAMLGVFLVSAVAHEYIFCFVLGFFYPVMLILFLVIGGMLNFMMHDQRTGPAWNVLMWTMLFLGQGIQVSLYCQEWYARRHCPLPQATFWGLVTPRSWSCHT

Stability in the diet = format: physicochemical; settings: diet admixture
[2] = Absorption after oral intake; settings: given in the diet

## Cc1ccccc1[C@@H]1OCC2(C)C3C[C@H](OC(=O)c4ccc(C#N)cc4)[C@@]4(C)Oc5cc(-c6cccnc6)oc(=O)c5[C@H](O)C4[C@@]3(C)CC[C@@H]2O1 (some centres unmarked) [PRD125]
[1]; LAL−/− mice, 10 mg/kg/day as diet admixture
  decrease of liver cholesterol content versus untreated mice: 65%
[1]; male LAL−/− mice, 10 mg/kg/day as diet admixture, terminal plasma
  serum enzyme levels: reduced
[1]; male LAL−/− mice, FVB background, 10 mg/kg/day as diet admixture, from 21 to 52 or 53 days of age
  liver cholesterol esters: significantly reduced
[1]; oral, does not need booster injections
  oral effectiveness: effective orally
[1]; treated LAL−/− mice, 10 mg/kg/day as diet admixture (untreated approximately 146 mg/liver)
  cholesterol content of liver: ~39 mg/liver
SOAT2
  specificity to SOAT2 compared to SOAT1: over 5000 fold
Stability in the diet
  stability in the diet: stable
[2]
  absorption: easily absorbed

— patent US20160367537A1, “COMPOSITIONS AND METHODS FOR THE TREATMENT AND MANAGEMENT OF STEATOSIS IN HUMAN LIVER” (WAKE FOREST UNIVERSITY HEALTH SCIENCES, priority 2013, published 2016)
